Measurements published in patent US20030187240A1, “2' -modified oligonucleotides” (ISIS Pharmaceuticals, Inc., priority 1990, published 2003).
“Also recorded” adds a separate entry of the source. Strand notation (5' to 3'): a small letter for the sugar, then the base; units joined by * are phosphorothioate-linked, units joined directly phosphodiester-linked; [ ] holds rarer units or linkages, { } end groups; capitals alone tell only the bases. [OPr] = 2'-O-propyl ribonucleotide; d = 2'-deoxy (DNA); m = 2'-O-methyl; f = 2'-fluoro

Key:
PKC-α mRNA = PKC-α mRNA levels by Northern blot analysis; assay type: cell-based, human; details: FIGS. 3, 4 and 5; result in words
Method: Oligonucleotides having SEQ ID NO: 4 were synthesized as uniformly phosphorothioate chimeric oligonucleotides having a centered deoxy gap of varying lengths flanked by 2′-O-methylated regions. These oligonucleotides (500 nM concentration) were tested for effects on PKC-α mRNA levels by Northern blot analysis.

[1] = test system: codon-12 point mutation of mutant (activated) H-ras RNA; assay type: cell-based, human
ras mRNA = test: Northern blot analysis of ras expression in T24 cells; assay type: cell-based, human; design: inhibition of ras expression / decrease of ras mRNA: concentration or dose not given beside the values
Method: The human urinary bladder cancer cell line T24 was obtained from the American Type Culture Collection (Rockville Md.). Cells were grown in McCoy's 5A medium with L-glutamine (GIBCO-BRL, Gaithersburg, Md.), supplemented with 10% heat-inactivated fetal calf serum and 50 U/ml each of penicillin and streptomycin. Cells were seeded on 100 mm plates. When they reached 70% confluency, they were treated with oligonucleotide. Plates were washed with 10 ml prewarmed PBS and 5 ml of OptiMEM (GIBCO) reduced-serum medium containing 2.5 μl DOTMA. Oligonucleotide was then added to the desired concentration. After 4 hours of treatment, the medium was replaced with McCoy's medium. Cells were harvested 48 hours after oligonucleotide treatment and RNA was isolated using a standard CsCl purification method. [Kingston in Current Protocols in Molecular Biology, F. M. Ausubel, R. Brent, R. E. Kingston, D. D. Moore, J. A. Smith, J. G. Seidman and K. Strahl, Eds., John Wiley and Sons, New York.] The human epithelioid carcinoma cell line HeLa 229 was obtained from the American Type Culture Collection (Bethesda, Md.). HeLa cells were maintained as monolayers on 6-well plates in Dulbecco's Modified Eagle's medium (DMEM) supplemented with 10 fetal bovine serum and 100 U/ml penicillin. Treatment with oligonucleotide and isolation of RNA were essentially as described above for T24 cells.
Northern hybridization: 10 μg of each RNA was electrophoresed on a 1.2% agarose/formaldehyde gel and transferred overnight to GeneBind 45 nylon membrane (Pharmacia LKB, Piscataway, N.J.) using standard methods. [Kingston in Current Protocols in Molecular Biology, F. M. Ausubel, R. Brent, R. E. Kingston, D. D. Moore, J. A. Smith, J. G. Seidman and K. Strahl, Eds., John Wiley and Sons, New York.] RNA was UV-crosslinked to the membrane. Double-stranded ^32P-labeled probes were synthesized using the Prime a Gene labeling kit (Promega, Madison Wis.). The ras probe was a SalI-NheI fragment of a cDNA clone of the activated (mutant) H-ras mRNA having a GGC-to-GTC mutation at codon-12. The control probe was G3PDH. Blots were prehybridized for 15 minutes at 68° C. with the QuickHyb hybridization solution (Stratagene, La Jolla, Calif.). The heat-denatured radioactive probe (2.5×10^6 counts/2 ml hybridization solution) mixed with 100 μl of 10 mg/ml salmon sperm DNA was added and the membrane was hybridized for 1 hour at 68° C. The blots were washed twice for 15 minutes at room temperature in 2×SSC/0.1% SDS and once for 30 minutes at 60° C. with 0.1×SSC/0.1%SDS. Blots were autoradiographed and the intensity of signal was quantitated using an ImageQuant PhosphorImager (Molecular Dynamics, Sunnyvale, Calif.). Northern blots were first hybridized with the ras probe, then stripped by boiling for 15 minutes in 0.1×SSC/0.1%SDS and rehybridized with the control G3PDH probe to check for correct sample loading.

[2] = test system: complementary RNA strand (the sense strand); test: Thermal melting analysis of 2′-deoxy-2′-fluoro modified oligonucleotides (Table 1); assay type: binding
[3] = test system: RNA complement “Y” strand ribo(3′GAG CAU GGY AAG GCC AGG5′); test: Base-pair specificity: single base-pair mismatches and a bulge (Table 2); assay type: binding
Method: The ability of the 2′-modified oligonucleotides to hybridize to their complementary RNA or DNA sequences was determined by thermal melting analysis. The RNA complement was synthesized from T7 RNA polymerase and a template-promoter of DNA synthesized with an Applied Biosystems, Inc. 380B RNA species was purified by ion exchange using FPLC (LKB Pharmacia, Inc.). Natural antisense oligonucleotides or those containing 2′-modifications at specific locations were added to either the RNA or DNA complement at stoichiometric concentrations and the absorbance (260 nm) hyperchromicity upon duplex to random coil transition was monitored using a Gilford Response II spectrophotometer. These measurements were performed in a buffer of 10 mM Na-phosphate, pH 7.4, 0.1 mM EDTA, and NaCl to yield an ionic strength of 10 either 0.1 M or 1.0 M. Data was analyzed by a graphic representation of 1/Tm vs ln[Ct], where [Ct] was the total oligonucleotide concentration. From this analysis the thermodynamic parameters were determined. Based upon the information gained concerning the stability of the duplex of heteroduplex formed, the placement of modified pyrimidine into oligonucleotides were assessed for their effects on helix stability.
Base-pair specificity of 2′-deoxy-2′-fluoro modified oligonucleotides with the RNA complement (a “Y” strand) was determined by effecting single base-pair mismatches and a bulge. […] In Table 2, the underlined nucleotides represent nucleotides that include a 2′-deoxy-2′-fluoro substituent.

[4] = G°37, antisense strand duplexed with RNA sense strand
[5] = first Tm column, duplex with RNA sense strand
[6] = difference (delta Tm) to the unmodified strand
[7] = difference to the unmodified strand
[8] = Y = C, mismatch, difference to Watson-Crick
[9] = Y = G, mismatch, difference to Watson-Crick
[10] = Y = None, bulged T/U, difference to Watson-Crick
[11] = Y = U, mismatch, difference to Watson-Crick

3522 (AsAsAsAsCsGsTsCsAsGsCsCsAsTsGsGsTsCsCsC; 2'-O-methyl/deoxy chimeric, phosphorothioate, as printed in the source, key not given here) [Oligonucleotide 3522]
effect on PKC-α mRNA levels (PKC-α mRNA): show reduction of PKC-α mRNA

3975 (CCACACCGACGGCGCCC; chimeric 2'-O-methyl phosphorothioate, pattern not given here) [Oligonucleotide 3975]
inhibition of ras-luciferase activity [1]: neither of the oligonucleotides having either the one or the three 2′-deoxy-erythro-pentofuranosyl nucleotide subsequences showed significant activity

3979 (CCACACCGACGGCGCCC; chimeric 2'-O-methyl phosphorothioate, pattern not given here) [Oligonucleotide 3979]
activity at the highest concentration dose [1]: measurable activity
inhibition of ras-luciferase activity [1]: neither of the oligonucleotides having either the one or the three 2′-deoxy-erythro-pentofuranosyl nucleotide subsequences showed significant activity

3980 (CCACACCGACGGCGCCC; chimeric 2'-O-methyl phosphorothioate, pattern not given here) [Oligonucleotide 3980]
inhibition of ras-luciferase activity [1]: next greatest inhibition
inhibition of ras expression / decrease of ras mRNA (ras mRNA): 61%

3984 (CCACACCGACGGCGCCC; chimeric 2'-O-methyl phosphorothioate, pattern not given here) [Oligonucleotide 3984]
inhibition of ras-luciferase activity [1]: greater inhibition of ras-luciferase activity than did oligonucleotide 2570
inhibition of ras expression / decrease of ras mRNA (ras mRNA): 81%

4998 (CTTATATTCCGTCATCGCTC; sugars from the 5' end m6 d7 m7, all phosphorothioate, methylation of C and T or U not given here) [Oligonucleotide 4998]
inhibition of ras expression / decrease of ras mRNA (ras mRNA): 84%

5352 (AAAACGTCAGCCATGGTCCC; sugars from the 5' end m6 d6 m8, all phosphorothioate, methylation of C and T or U not given here) [Oligonucleotide 5352]
effect on PKC-α mRNA levels (PKC-α mRNA): show reduction of PKC-α mRNA; also recorded: most active

6632 (dT*dT*dC*dT*dC*dG*dC*dT*dG*dG*dT*dG*dA*dG*dT*dT*dT*dC; antisense) [Oligonucleotide 6632]
effect on PKC-α mRNA levels (PKC-α mRNA): most active in reducing PKC-α mRNA levels

6653 (TTCTCGCTGGTGAGTTTC; antisense; sugars from the 5' end [OPr]3 d11 [OPr]4, all phosphorothioate, methylation of C not given here) [Oligonucleotide 6653]
effect on PKC-α mRNA levels (PKC-α mRNA): most active in reducing PKC-α mRNA levels

CTTATATTCCGTCATCGCTC [Oligonucleotide 2502]
inhibition of ras expression / decrease of ras mRNA (ras mRNA): 26%

CTC GTA CCT TCC GGT CC (CTCGTACCTTCCGGTCC; listed as DNA, chemistry not fully specified) [reference compound]
G°37 [2, 4]: -14.57 ± 0.13 kcal/mol
Tm (° C.) [2, 5]: 61.6 °C

CUC GUA CCU UCC GGU CC (CUCGUACCUUCCGGUCC; 2'-deoxy-2'-fluoro A, T, C, chemistry not fully specified)
G°37 [2, 4]: -27.81 ± 0.05 kcal/mol
Tm (° C.) [2, 6]: +1.4 °C
G°37 [2, 7]: -13.24 ± 0.14 kcal/mol
Tm (° C.) [2, 5]: 81.6 °C

C^MC^MA^M C^MA^MC^M CdGdAd CdGdG^M C^MG^MC^M C^MC^M [Oligonucleotide 3980]
inhibition of ras expression in T24 cells (ras mRNA; result in words): inhibited ras expression

CsCsAsCsAsCsCsGsAoCsGsGsCsGsCsCsC [Oligonucleotide 4248]
effect on ras expression (ras-luciferase reporter system), chimeric backbone-modified oligonucleotides [1]: just as active as a full P═S molecule

deoxy(CTC GTA CCT TTC CGG TCC) (CTCGTACCTTTCCGGTCC; DNA, backbone not given here) [reference compound]
G°37 ([3]; Y = A, Watson-Crick): -14.57 ± 0.13 kcal/mol
Tm (° C.) ([3]; Y = A, Watson-Crick): 61.6 °C
G°37 ([3]; Y = C, mismatch): -12.78 ± 0.11 kcal/mol
Tm (° C.) ([3]; Y = C, mismatch): 54.4 °C
G°37 [3, 8]: 1.79 ± 0.17 kcal/mol
Tm (° C.) [3, 8]: −7.2 °C
G°37 ([3]; Y = G, mismatch): -16.39 ± 0.25 kcal/mol
Tm (° C.) ([3]; Y = G, mismatch): 61.7 °C
G°37 [3, 9]: -1.82 ± 0.28 kcal/mol
Tm (° C.) [3, 9]: 0.1 °C
G°37 ([3]; Y = None, bulged T/U): -14.86 ± 0.35 kcal/mol
Tm (° C.) ([3]; Y = None, bulged T/U): 59.4 °C
G°37 [3, 10]: -0.284 ± 0.37 kcal/mol
Tm (° C.) [3, 10]: −2.2 °C
G°37 ([3]; Y = U, mismatch): -13.48 ± 0.17 kcal/mol
Tm (° C.) ([3]; Y = U, mismatch): 55.9 °C
G°37 [3, 11]: 1.09 ± 0.22 kcal/mol
Tm (° C.) [3, 11]: −5.7 °C

deoxy(CUC GUA CCU UUC CGG UCC) (CUCGUACCUUUCCGGUCC; sugars from the 5' end fffdfffffffffddffd, backbone, methylation of C and T or U not given here)
G°37 ([3]; Y = A, Watson-Crick): -27.80 ± 0.05 kcal/mol
Tm (° C.) ([3]; Y = A, Watson-Crick): 81.6 °C
G°37 ([3]; Y = C, mismatch): -21.98 ± 0.28 kcal/mol
Tm (° C.) ([3]; Y = C, mismatch): 73.8 °C
G°37 [3, 8]: 5.82 ± 0.28 kcal/mol
Tm (° C.) [3, 8]: −7.8 °C
G°37 ([3]; Y = G, mismatch): -21.69 ± 0.16 kcal/mol
Tm (° C.) ([3]; Y = G, mismatch): 77.8 °C
G°37 [3, 9]: 6.12 ± 0.17 kcal/mol
Tm (° C.) [3, 9]: −3.8 °C
G°37 ([3]; Y = None, bulged T/U): -22.87 ± 0.27 kcal/mol
Tm (° C.) ([3]; Y = None, bulged T/U): 75.5 °C
G°37 [3, 10]: 4.94 ± 0.27 kcal/mol
Tm (° C.) [3, 10]: −6.2 °C
G°37 ([3]; Y = U, mismatch): -18.68 ± 0.15 kcal/mol
Tm (° C.) ([3]; Y = U, mismatch): 73.6 °C
G°37 [3, 11]: 9.13 ± 0.16 kcal/mol
Tm (° C.) [3, 11]: −8.0 °C
specificity of duplex formation with the RNA complement ([3]; versus like-sequenced unmodified oligonucleotide): greater specificity than a like-sequenced unmodified oligonucleotide

oligonucleotide with the 2′-O-propyl diester flanking regions: SEQ ID NO: 1, phosphorothioate in the 7-base deoxy gap only, phosphodiester 2′-O-propyl flanking regions (DNA CCACACCGACGGCGCCC; 2'-O-propyl flanks, phosphorothioate gap, chemistry not fully specified)
effect on ras expression (ras-luciferase reporter system), chimeric backbone-modified oligonucleotides [1]: able to inhibit ras expression

ps(CGA CTA TGC AAG TAC) [reference compound]
G°37 [2, 4]: -7.58 ± 0.06 kcal/mol
Tm (° C.) [2, 6]: −11.2 °C
Tm (° C.) [2, 5]: 33.9 °C

ps(CGA CUA UGC AAG UAC)
G°37 [2, 4]: -15.90 ± 0.34 kcal/mol
Tm (° C.)/subst. ([2]; delta Tm per 2′-fluoro substitution): +2.5 °C
Tm (° C.) [2, 6]: +27.0 °C
G°37 [2, 7]: -8.32 ± 0.34 kcal/mol
Tm (° C.) [2, 5]: 60.9 °C
